Experimental findings from ChEMBL document CHEMBL1146912, “Synthesis, radiolabeling, and in vivo evaluation of an 18F-labeled isatin analog for imaging caspase-3 activation in apoptosis” (Bioorg Med Chem Lett, 2006) are described below.

By IC50 is commonly meant the concentration needed to halve the response being measured.

In one data set the target is T1, Caspase-6 (Homo sapiens, UniProt P55212).
T1 sequence (P55212 whole entry): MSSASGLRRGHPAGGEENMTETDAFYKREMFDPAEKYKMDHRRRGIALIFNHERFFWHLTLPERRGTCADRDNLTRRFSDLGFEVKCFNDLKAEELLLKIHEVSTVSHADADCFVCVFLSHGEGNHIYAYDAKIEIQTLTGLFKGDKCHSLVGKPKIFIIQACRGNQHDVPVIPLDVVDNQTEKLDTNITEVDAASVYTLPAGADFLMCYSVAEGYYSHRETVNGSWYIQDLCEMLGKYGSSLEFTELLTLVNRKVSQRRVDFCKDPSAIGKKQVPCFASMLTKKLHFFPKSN
Briefly: Inhibition of human recombinant caspase 6.

The next data set deals with T2, Caspase-3 (Homo sapiens, UniProt P42574).
T2 sequence (P42574 whole entry): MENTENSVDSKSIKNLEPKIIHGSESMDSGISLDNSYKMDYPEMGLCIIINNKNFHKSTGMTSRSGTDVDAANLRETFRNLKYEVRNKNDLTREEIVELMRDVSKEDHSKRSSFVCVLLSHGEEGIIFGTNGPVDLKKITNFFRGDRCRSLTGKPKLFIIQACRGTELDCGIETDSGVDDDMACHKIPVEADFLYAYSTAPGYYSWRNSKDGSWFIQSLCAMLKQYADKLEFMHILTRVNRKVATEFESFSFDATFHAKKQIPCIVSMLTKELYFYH
Briefly: Inhibition of human recombinant caspase 3.

In another data set the target is Caspase-8 (Homo sapiens, UniProt Q14790). The data set is described as follows: Inhibition of human recombinant caspase 8.
A further data set has as its target T3, Caspase-1 (Homo sapiens, UniProt P29466).
T3 sequence (P29466 whole entry): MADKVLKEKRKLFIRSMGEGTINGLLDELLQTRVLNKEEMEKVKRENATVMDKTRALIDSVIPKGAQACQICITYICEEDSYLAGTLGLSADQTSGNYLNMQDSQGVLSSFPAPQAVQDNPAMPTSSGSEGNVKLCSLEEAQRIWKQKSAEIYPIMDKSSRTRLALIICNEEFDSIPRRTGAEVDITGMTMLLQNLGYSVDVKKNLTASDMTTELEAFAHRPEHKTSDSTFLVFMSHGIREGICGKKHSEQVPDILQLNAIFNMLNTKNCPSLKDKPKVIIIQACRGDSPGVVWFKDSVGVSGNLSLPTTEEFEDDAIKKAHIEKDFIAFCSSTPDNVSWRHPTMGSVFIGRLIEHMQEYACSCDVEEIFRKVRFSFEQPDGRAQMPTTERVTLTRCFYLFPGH
The data set is described as follows: Inhibition of human recombinant caspase 1.

The species named for data set [1] is Rattus norvegicus. The data set is described as follows: Effect on uptake in fat of cycloheximide-treated Sprague-Dawley rat relative to control after 1 hr. Type of data set: ADME, organism-based, Adipose tissue. Conditions: in vivo; call rule not given here.
The species named for data set [2] is Rattus norvegicus. Briefly: Increase in uptake in spleen of cycloheximide-treated Sprague-Dawley rat relative to control after 1 hr. The class given is ADME, organism-based. Conditions: in vivo.
Data set [3] is filed under the species Rattus norvegicus. The data set is described as follows: Increase in uptake in liver of cycloheximide-treated Sprague-Dawley rat relative to control after 1 hr. Type of data set: ADME, organism-based. Conditions: in vivo.

Bounds are passed on as bounds.

Caspase-8, sequence (Q14790 217-374 limits assumed): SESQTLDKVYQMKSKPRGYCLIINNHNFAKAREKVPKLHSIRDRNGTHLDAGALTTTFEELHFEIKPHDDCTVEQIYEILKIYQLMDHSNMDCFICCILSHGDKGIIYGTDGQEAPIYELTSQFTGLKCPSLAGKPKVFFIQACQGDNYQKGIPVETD
Caspase-8, sequence (Q14790 385-479 limits assumed): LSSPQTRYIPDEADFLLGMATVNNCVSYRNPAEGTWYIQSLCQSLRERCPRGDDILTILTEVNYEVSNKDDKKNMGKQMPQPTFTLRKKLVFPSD

For the compound `O=C1C(=O)N(Cc2ccc(OCCF)cc2)c2ccc(S(=O)(=O)N3CCC[C@H]3COc3ccccc3)cc21`, the IC50 on Caspase-6 was 3.7 µM; at Caspase-3, 0.0097 µM; on Caspase-8 it was greater than 50 µM; on Caspase-1, greater than 50 µM.
As to `O=C1C(=O)N(Cc2ccc(OCC[18F])cc2)c2ccc(S(=O)(=O)N3CCC[C@H]3COc3ccccc3)cc21`, the Activity entry is “Not Active” in the data set filed under Rattus norvegicus [1], 184% in the data set listed under Rattus norvegicus [2] and 94% in the data set listed under Rattus norvegicus [3].
